Test results: patent US20180021467A1, “METHOD OF BLOCKING PERCEPTION OF MALODOR” (Monell Chemical Senses Center, priority 2015, published 2018)

Tests used:
TAAR5 [1] = molecular target: T1, TAAR5 (Homo sapiens, UniProt O14804); conditions: cited from earlier work
T1 sequence (O14804 1-337): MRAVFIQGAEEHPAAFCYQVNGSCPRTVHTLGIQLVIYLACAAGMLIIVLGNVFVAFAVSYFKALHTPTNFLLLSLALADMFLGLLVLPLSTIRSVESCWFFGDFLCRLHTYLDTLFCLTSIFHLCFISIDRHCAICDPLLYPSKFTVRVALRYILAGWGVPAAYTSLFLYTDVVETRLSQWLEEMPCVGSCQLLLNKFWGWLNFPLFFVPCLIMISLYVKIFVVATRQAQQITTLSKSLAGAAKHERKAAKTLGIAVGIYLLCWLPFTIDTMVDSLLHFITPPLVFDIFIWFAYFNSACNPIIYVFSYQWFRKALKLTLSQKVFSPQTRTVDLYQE

TAAR5 [2] = molecular target: T1, TAAR5; experiment: Dose responses on TAAR5 in luciferase assay (antagonist dose-dependent inhibition with TMA at EC80; TMA dose response with antagonist at IC10, IC30, IC50); format: cell-based; parameters: TAAR open reading frames were amplified from pooled human genomic DNA using Phusion polymerase and subcloned into a pCI expression vector; Rho tag (first 20 residues of human rhodopsin); expressed in transfected cells; host or cells: Hana3A cells; conditions: TAAR5 luciferase
Description: (§1) We screened a TAAR of interest, TAAR5, with the agonist TMA added at the EC80 concentration, against a proprietary small-molecule library to identify antagonists. TAAR open reading frames were amplified from pooled human genomic DNA using Phusion polymerase and subcloned into a pCI expression vector (Promega) containing the first 20 residues of human rhodopsin (Rho tag). The sequences of the cloned receptors were verified by sequencing (3730xl Sequencer, ABI Biosystems). We used the Dual-Glo™ Luciferase Assay System (Promega) to measure receptor responses as previously described in Trimmer, C. et al 2014 High-throughput Analysis of Mammalian Olfactory Receptors: Measurement of Receptor Activation via Luciferase Activity. Journal of Visualized Experiments, (88). doi:10.3791/51640. Hana3A cells were transfected with 5 ng/well of RTP1S, 5 ng/well of pRL-SV40, 10 ng/well of CRE-luciferase, 2.5 ng/well of M3, and 5 ng/well of odorant receptor. 1M odorant stocks were diluted in DMSO. 24 hours following transfection, transfection media was removed and replaced with the appropriate concentration of odor diluted from the 1M stocks in CD293 (Gibco). Four hours following odor stimulation luminescence was measured using a Synergy 2 plate reader (Biotek). All luminescence values were divided by the Renilla Luciferase activity to control for transfection efficiency in a given well.
In a secondary experiment, we ran dose dependent inhibition responses for the top twelve antagonists, i.e., the top 12 compounds identified in FIG. 4. TMA was kept at the EC80 (500 μM) and the twelve antagonists were diluted in a dose response with the highest concentration at 1000 μM. The top five candidate compounds, i.e., phenethyl benzoate, trans-2-nonen-1-ol, isoeugenyl phenlacetate, tributyl-2-acetylcitrate, bis(2-methyl-3-furyl)disulfide, were rescreened using an antagonist dose response at 2500 μM. We determined the IC80 values for those five antagonists. Using those IC80 values, we completed a 3-fold dilution dose response of TMA, starting at 3000 μM, in the presence of our five candidate antagonists. […] It was difficult to determine if the five antagonists were competitive or non-competitive inhibitors using the very high IC80 concentrations of the antagonists.
In another experiment, we evaluated dose responses of TMA in the presence of the antagonist at their IC10, IC30 and IC50 concentrations.

[3] = system: human perception of TMA odor ("fishy"); experiment: Human perceptual ratings of fishiness of TMA with antagonist or control odor (air-dilution olfactometer); format: in vivo; conditions: human subjects, TMA 3 mM, 1 mM, 0.33 mM, odors intensity-balanced to 1 mM TMA
Description: We evaluated the efficacy of the in vitro antagonists on human perception. We asked 10 (FIG. 5A) or 29 (FIG. 5B) subjects to rate how “fishy” and how “pleasant” an odor was. The odors were delivered to the subject using an air-dilution olfactometer (Lundström, J. N., et al., 2010 International Journal of Psychophysiology, 78(2), 179-189; doi:10.1016/j.ijpsycho.2010.07.007) and each trial consisted of one concentration of trimethylamine (either 3 mM, 1 mM, 0.33 mM, or a water blank) combined with either an antagonist or a solvent blank. Subjects used a general labeled magnitude scale to rate how “fishy” the odor smelled and a scale from −10 to +10 to rate the pleasantness.
The antagonists and control odors were intensity-balanced to match the 1 mM concentration of TMA. Trans-2-nonen-1-ol was diluted in Diethyl phthalate (DEP); TMA was diluted in water with NaOH added; Linalool was diluted in DEP. In all trials subjects received air from jars containing water and DEP so that solvent presence could not be used as a cue to the presence of the test odor.

TAAR5 [4] = molecular target: T1, TAAR5; experiment: Antagonist screen of odor library on TAAR5 with agonist TMA (Dual-Glo luciferase assay, Hana3A cells); format: cell-based; parameters: TAAR open reading frames were amplified from pooled human genomic DNA using Phusion polymerase and subcloned into a pCI expression vector; Rho tag (first 20 residues of human rhodopsin); expressed in transfected cells; host or cells: Hana3A cells; conditions: inhibition of TMA/TAAR5 response; test odor at 30 μM; TMA at EC80; read-out: Percent Inhibition
Description: as §1, with “The sequences of the cloned receptors were verified by sequencing (3730xl Sequencer, ABI Biosystems). We used the Dual-Glo™ Luciferase Assay System (Promega) to measure receptor responses as previously described in Trimmer, C. et al 2014 High-throughput Analysis of Mammalian Olfactory Receptors: Measurement of Receptor Activation via Luciferase Activity. Journal of Visualized Experiments, (88). doi:10.3791/51640.” left out
We completed an antagonist screen of a proprietary library of odors, including the 52 odorous compounds identified in FIG. 4 at a concentration of 30 μM.

[5] = system: human perception of TMA odor (mixture suppression); experiment: Split-nostril experiment, physical vs dichorhinic mixtures with TMA; format: in vivo; conditions: human subjects, TMA with probe odorant
Description: Mixture suppression has both a central and peripheral component (Laing, D., & Willcox, M. (1987). An investigation of the mechanisms of odor suppression using physical and dichorhinic mixtures. Behavioural Brain Research, 26(2-3), 79-87. http://doi.org/10.1016/0166-4328(87)90157-4). […] To test this we carried out split-nostril experiments using stimuli in glass jars. We compared TMA-alone, TMA mixed with the probe odorant in the same nostril (physical mixture), and TMA mixed with the probe odorant in different nostrils (dichorhinic mixture) (FIG. 7). […] Subjects were instructed to make intensity judgements during inhalation to avoid retronasal contamination across nostrils. This allowed us to separate central and peripheral components of the mixture suppression.

| inhibition at 30 µM (TAAR5 [4]) [%] | IC50 (TAAR5 [2]; vs TMA, highest of the three concentrations in FIG. 2, read-out: IC50 concentration of antagonist) [µM] | IC10 concentration of antagonist (TAAR5 [2]; vs TMA, lowest of the three concentrations in FIG. 2) [µM] | IC30 concentration of antagonist (TAAR5 [2]; vs TMA, middle of the three concentrations in FIG. 2) [µM] | Structure (SMILES) | activation of human TAAR5 (TAAR5 [1]) | EC80 of agonist on TAAR5 (TAAR5 [2]) [µM] | effect on perceived fishy rating of TMA ([3]; listed as Trans-2-nonen-1-ol) | effect on perceived fishy rating of TMA ([3]; listed as trans-2-nonen-1-ol) | peripheral component of mixture suppression [5] |
| --- | --- | --- | --- | --- | --- | --- | --- | --- | --- |
|  |  |  |  | CN(C)C [TMA, trimethylamine, reference compound] | activated in a concentration-dependent manner | 500 |  |  |  |
| 89.3 | 703 | 100 | 316.22 | CCCCCC/C=C/CO [Trans-2-Nonen-1-ol] |  |  | significantly decreased the perceived fishy rating | decreases fishy intensity | larger peripheral component of mixture suppression than the control odorant linalool |
